Data taken from US20120308662A1, “PARTICULATE PREPARATION AND METHOD FOR PRODUCING THE SAME” (NITTO DENKO CORPORATION, priority 2011, published 2012).
Counter-ions that a name gives are not always drawn.

Experiments:
[1] = Dissolution test, flow-through cell method of the Japanese Pharmacopoeia; type: physicochemical; settings: Tamsulosin hydrochloride
Experimental: According to the flow-through cell method disclosed in the Japanese Pharmacopoeia, the test was carried out using a dissolution medium which was one of 1st fluid for dissolution test (pH 1.2), 2nd fluid for dissolution test (pH 6.8), and a disodium hydrogen phosphate-citric acid buffer solution at pH 7.2 (obtained by dissolving 7.1 g of dehydrated disodium hydrogen phosphate in water and adjusting the total volume to be 1000 mL, and adjusting the pH to 7.2 by adding, to the obtained solution, a solution obtained by dissolving 5.3 g of citric acid monohydrate in water and adjusting the total volume to be 1000 mL).
Swinnex Filter Holder 25 mm (from Nippon Millipore) was used for a cell. In order to prevent flowing out of the particulate formulations, a support screen (25 mm stainless, from Nippon Millipore), Durapore Membrane Filters (PVDF, Hydrophilic, 0.45 μm, 25 mm, from Nippon Millipore), and a silicon gasket 25 mm (Swinnex Filter Holder from Nippon Millipore) were successively installed. Masterflex L/S (Model 7524-50 from Cole Parmer Instrument COMPANY) was used as a pump and a dissolution medium was transported at 2.5 mL/min. Besides that, the test was carried out according to the flow-through cell method disclosed in the Japanese Pharmacopeia. An eluate was sampled 10, 30, 60 minutes after starting the test and the dissolution amount of the drug in the eluate was measured by high performance liquid chromatography (HPLC) and the dissolution rate to the initial drug content was calculated.

[2] = Measurement of average particle diameter of particulate formulation (automatic particle image analyzer); type: physicochemical; settings: particle diameter of 50% by volume; 20000 or more particles
Experimental: Herein, the “average particle diameter” means the particle diameter of 50% by volume of the entire particles and may be measured by using an “automatic particle image analyzer” (a particle image analyzer is an apparatus for measuring the particle diameter from images of photographed particles) and a “laser diffraction particle size distribution analyzer” (or a “laser diffraction/scattering particle size distribution analyzer”).
The average particle diameter was measured using 20000 or more particles with an automatic particle image analyzer (Morphologi (registered trade name)-G3 from Malvern Instruments).

Elution rate ratio between pH 6.8 and pH 1.2 ([1]; 60 min): 2.4
Drug dissolution under a condition of pH 1.2, in words ([1]; pH 1.2): high drug dissolution rate
Pharmaceutical elution rate 60 minutes after starting the test(%) ([1]; pH 1.2, 60 min): 36.7%
Drug dissolution under a condition of pH 6.8, in words ([1]; pH 6.8): high drug dissolution rate
Pharmaceutical elution rate 60 minutes after starting the test(%) ([1]; pH 6.8, 60 min): 88.4%
Average particle diameter of particulate formulations [2]: 2.7 μm
SMILES: CCOc1ccccc1OCCN[C@H](C)Cc1ccc(OC)c(S(N)(=O)=O)c1 [Comparative Example 9, Tamsulosin hydrochloride]
